Results reported in patent US20060030608A1, “Anti aromatase compounds pharmaceutical compositions and uses thereof” (Boehringer Ingelheim Pharmaceuticals, Inc., priority 2004, published 2006).

target: T1, recombinant human aromatase (CYP19) (Homo sapiens, UniProt P11511); test: aromatase (CYP19) inhibition assay, fluorometric substrate dibenzylfluorescein (DBF); assay type: biochemical; details: recombinant human aromatase (baculovirus/insect cell expressed), test compounds 2×10^−5 to 10^−9 M, 37° C. for 30 minutes
T1 construct: purchased GENTEST 456260; host or cells: baculovirus/insect cells
T1 sequence (P11511 1-503): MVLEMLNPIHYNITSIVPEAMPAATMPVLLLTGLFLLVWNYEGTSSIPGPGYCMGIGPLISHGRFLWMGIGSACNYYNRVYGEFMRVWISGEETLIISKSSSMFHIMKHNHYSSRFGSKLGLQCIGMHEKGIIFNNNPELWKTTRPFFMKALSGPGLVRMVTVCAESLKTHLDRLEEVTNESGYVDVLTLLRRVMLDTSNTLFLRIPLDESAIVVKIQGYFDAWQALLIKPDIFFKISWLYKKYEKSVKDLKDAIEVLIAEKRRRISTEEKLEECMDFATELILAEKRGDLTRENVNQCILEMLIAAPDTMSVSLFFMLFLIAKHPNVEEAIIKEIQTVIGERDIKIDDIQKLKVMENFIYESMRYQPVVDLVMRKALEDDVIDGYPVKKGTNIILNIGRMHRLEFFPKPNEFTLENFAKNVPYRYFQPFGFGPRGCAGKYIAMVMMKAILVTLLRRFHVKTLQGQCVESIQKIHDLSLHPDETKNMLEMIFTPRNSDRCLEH
Method: Compounds of the invention were evaluated for inhibiting aromatase enzyme using the following aromatase (CYP19) inhibition assay which detects aromatase inhibitors utilizing recombinant human aromatase (baculovirus/insect cell expressed) and the fluorometric substrate dibenzylfluorescein (DBF). Aromatase will metabolize DBF to fluorescein which will give the fluorescent signal. The assay is conducted in 96-well black, Falcon plate (BD Biosciences, Cat. No. 353241) in the total volume of 100 μL per well. 40 μL of the Cofactor/Dilution buffer (1) is added to the plate followed by 10 μL of serially diluted test compounds in duplicates for final concentration of 2×10^−5 to 10^−9 M, or 10 μL of phosphate buffer for positive and background control wells. After 10 minutes of preincubation at 37° C., the reaction is initiated by adding 50 μL of prewarmed Enzyme/Substrate Mix (2) to the test compound wells, and positive control wells (maximum activity of CYP19, which represents 100%). The plate is incubated at 37° C. for 30 minutes. To stop the reaction, 37.5 μL of 2 N NaOH is added to all wells. For background controls, 50 μL of Enzyme/Substrate Mix (2) are added into background control wells. The plate is left at 37° C. incubator for 2 hours to develop adequate signal to background ratio. Fluorescence per well is measured in the fluorescent plate reader. The metabolite concentration is measured using excitation wavelength of 485 nm and emission wavelength of 538 nm. Inhibition of aromatase by test compounds is expressed in percentage relative to positive controls. IC50 values for the test compounds are derived from non-liner curve fitting. • (1) Cofactor/Dilution buffer: 50 mM phosphate buffer, pH=7.4; 1× NADPH regenerating system A (20× stock, GENTEST, Cat. No. 451220); 1× NAPDH regenerating system B (100× stock, GENTEST, Cat. No. 451200) and 0.2 mg/mL control protein (Insect Cell Control Supersomes, GENTEST, Cat. No. 456200) • (2) Enzyme/Substrate Mix: 50 mM phosphate buffer, pH=7.4, 0.02 nmole/mL human aromatase protein (Human CYP19+P450 Reductase Supersomes, GENTEST, Cat. No. 456260); 0.4 μM dibenzylfluorescein (DBF, GENTEST, Cat. No. 451750, prepared at 2 mM concentration in acetonitrile); 0.5 mg/mL control protein (Insect Cell Control Supersomes, GENTEST, Cat. No. 456200).

| SMILES | aromatase inhibition |
| --- | --- |
| CC(C)(CC(O)(Cc1cc2cnccc2[nH]1)C(F)(F)F)c1cccc(F)c1 (stereo not drawn) [1,1,1-Trifluoro-4-(3-fluorophenyl)-4-methyl-2-(1H-pyrrolo[3,2-c]pyridin-2-ylmethyl)pentan-2-ol] | showed aromatase inhibition |
| CC(C)(CC(O)(Cc1cc2cnccc2[nH]1)C(F)(F)F)c1ccc(F)cc1O (stereo not drawn) [5-Fluoro-2-[4,4,4-trifluoro-3-hydroxy-1,1-dimethyl-3-(1H-pyrrolo[3,2-c]pyridin-2-ylmethyl)butyl]phenol] | showed aromatase inhibition |
| COc1ccc(F)cc1C(C)(C)CC(O)(Cc1cc2cnccc2[nH]1)C(C)C (stereo not drawn) [5-(5-Fluoro-2-methoxyphenyl)-2,5-dimethyl-3-(1H-pyrrolo[3,2-c]pyridin-2-ylmethyl)hexan-3-ol] | showed aromatase inhibition |
| CC(C)(CC(O)(Cc1cc2ccncc2[nH]1)C(F)(F)F)c1cccc(F)c1 (stereo not drawn) [1,1,1-Trifluoro-4-(3-fluorophenyl)-4-methyl-2-(1H-pyrrolo[2,3-c]pyridin-2-ylmethyl)pentan-2-ol] | showed aromatase inhibition |
| CC(C)(CC(O)(Cc1cc2ccncc2[nH]1)C(F)(F)F)c1ccc(F)cc1 (stereo not drawn) [1,1,1-Trifluoro-4-(4-fluorophenyl)-4-methyl-2-(1H-pyrrolo[2,3-c]pyridin-2-ylmethyl)pentan-2-ol] | showed aromatase inhibition |
| COc1ccc(F)cc1C(C)(C)CC(O)(Cc1cc2ccncc2[nH]1)C(C)C (stereo not drawn) [5-(5-Fluoro-2-methoxyphenyl)-2,5-dimethyl-3-(1H-pyrrolo[2,3-c]pyridin-2-ylmethyl)hexan-3-ol] | showed aromatase inhibition |
| CC(C)(CC(O)(Cc1cc2ccncc2[nH]1)C(F)(F)F)c1ccccc1 (stereo not drawn) [1,1,1-Trifluoro-4-methyl-4-phenyl-2-(1H-pyrrolo[2,3-c]pyridin-2-ylmethyl)pentan-2-ol] | showed aromatase inhibition |
| COc1ccc(F)cc1C(C)(C)CC(O)(Cc1cc2cnccc2[nH]1)C(F)F (stereo not drawn) [1,1-Difluoro-4-(5-fluoro-2-methoxyphenyl)-4-methyl-2-(1H-pyrrolo[3,2-c]pyridin-2-ylmethyl)pentan-2-ol] | showed aromatase inhibition |
| CC(C)(CC(O)(Cc1cc2cnccc2[nH]1)C1CC1)c1cc(Cl)cc2c1OCC2 (stereo not drawn) [4-(5-Chloro-2,3-dihydrobenzofuran-7-yl)-2-cyclopropyl-4-methyl-1-(1H-pyrrolo[3,2-c]pyridin-2-yl)pentan-2-ol] | showed aromatase inhibition |
| CC(C)(CC(O)(Cc1cc2cnccc2[nH]1)C(F)(F)F)c1cccc2c1OCC2 (stereo not drawn) [4-(2,3-Dihydrobenzofuran-7-yl)-1,1,1-trifluoro-4-methyl-2-(1H-pyrrolo[3,2-c]pyridin-2-ylmethyl)pentan-2-ol] | showed aromatase inhibition |
| Cc1ccc(F)cc1C(C)(C)CC(O)(Cc1cc2ccncc2[nH]1)C(C)C (stereo not drawn) [5-(5-Fluoro-2-methylphenyl)-2,5-dimethyl-3-(1H-pyrrolo[2,3-c]pyridin-2-ylmethyl)hexan-3-ol] | showed aromatase inhibition |
| COc1ccc(F)cc1C(C)(C)CC(O)(Cc1[nH]c2ccncc2c1CN(C)C)C(F)(F)F (stereo not drawn) [2-(3-Dimethylaminomethyl-1H-pyrrolo[3,2-c]pyridin-2-ylmethyl)-1,1,1-trifluoro-4-(5-fluoro-2-methoxyphenyl)-4-methylpentan-2-ol] | showed aromatase inhibition |
| COc1ccc(F)cc1C(C)(C)CC(O)(Cc1cc2ccncc2[nH]1)C(F)(F)F (stereo not drawn) [1,1,1-Trifluoro-4-(5-fluoro-2-methoxyphenyl)-4-methyl-2-(1H-pyrrolo[2,3-c]pyridin-2-ylmethyl)pentan-2-ol] | showed aromatase inhibition |
| Cc1ccc(F)cc1C(C)(C)CC(O)(Cc1cc2ccncc2[nH]1)C1CC1 (stereo not drawn) [2-Cyclopropyl-4-(5-fluoro-2-methylphenyl)-4-methyl-1-(1H-pyrrolo[2,3-c]pyridin-2-yl)pentan-2-ol] | showed aromatase inhibition |
| COc1ccc(F)cc1C(C)(C)CC(O)(Cc1cc2cnccc2[nH]1)C(C)(C)C (stereo not drawn) [5-(5-Fluoro-2-methoxyphenyl)-2,2,5-trimethyl-3-(1H-pyrrolo[3,2-c]pyridin-2-ylmethyl)hexan-3-ol] | showed aromatase inhibition |
